The target in data set [1] is D(1A) dopamine receptor (Homo sapiens) (UniProt P21728). As to the kind of experiment: Binding affinity to dopamine D1 receptor (unknown origin).
The nature of data set [2]: Solubility of compound. The format is physicochemical.
The nature of data set [3]: in vitro. To be noted: rat, liver microsomes, CLH.
Data set [4] in a line: Clearance in portal vein cannulated Sprague-Dawley rat blood. To be noted: whole blood.
The nature of data set [5]: Half life in portal vein cannulated Sprague-Dawley rat model. Particulars: in vivo.
The next data set deals with Cytochrome P450 2C19 (Homo sapiens, UniProt P33261). As to the kind of experiment: Inhibition of recombinant human CYP2C19 expressed in baculosomes preincubated for 10 mins followed by cofactor addition measured every minute for 10 mins using 3-butyryl-7-methoxycoumarin as substrate by CYPEX assay.
The target in data set [6] is T1, Cytochrome P450 3A4 (Homo sapiens, UniProt P08684). As to the kind of experiment: Inhibition of recombinant human CYP3A4 expressed in baculosomes preincubated for 10 mins followed by cofactor addition measured every minute for 10 mins using diethoxyflourescein as substrate by CYPEX assay.
For a further data set, the target named is D(2) dopamine receptor (Homo sapiens, UniProt P14416). As to the kind of experiment: Displacement of [3H]-spiperone from human dopamine D2 receptor expressed in CHO-K1 cell membranes after 120 mins by liquid scintillation counter method. A general note: Loss of bound radioactivity is the signal in a displacement assay; it reports binding, not function.

Data set [7] can be described thus: Fraction unbound in Sprague-Dawley rat blood.
Data set [8] is described as follows: in vitro. To be noted: human, liver microsomes, CLH. For orientation: Microsomes from liver hold many membrane-bound enzymes, among them those of drug oxidation.
Data set [9] is described as follows: Fraction absorbed in portal vein cannulated Sprague-Dawley rat model. To be noted: in vivo.
The next data set deals with Cytochrome P450 2D6 (Homo sapiens, UniProt P10635). As to the kind of experiment: Inhibition of recombinant human CYP2D6 expressed in baculosomes preincubated for 10 mins followed by cofactor addition measured every minute for 10 mins using 4-methylaminomethyl-7-methoxycoumarin as substrate by CYPEX assay.
Data set [10] can be described thus: Fraction unbound in Sprague-Dawley rat brain.
Data set [11] is described as follows: Volume of distribution at steady state in portal vein cannulated Sprague-Dawley rat model. Particulars: in vivo.
The next data set deals with Cytochrome P450 2C9 (Homo sapiens, UniProt P11712). As to the kind of experiment: Inhibition of recombinant human CYP2C9 expressed in baculosomes preincubated for 10 mins followed by cofactor addition measured every minute for 10 mins using 7-methoxy-4-trifluoromethylcoumarin-3-acetic acid as substrate by CYPEX assay.
A further data set deals with T2, Cytochrome P450 1A2 (Homo sapiens, UniProt P05177).
T2 sequence (P05177 whole entry): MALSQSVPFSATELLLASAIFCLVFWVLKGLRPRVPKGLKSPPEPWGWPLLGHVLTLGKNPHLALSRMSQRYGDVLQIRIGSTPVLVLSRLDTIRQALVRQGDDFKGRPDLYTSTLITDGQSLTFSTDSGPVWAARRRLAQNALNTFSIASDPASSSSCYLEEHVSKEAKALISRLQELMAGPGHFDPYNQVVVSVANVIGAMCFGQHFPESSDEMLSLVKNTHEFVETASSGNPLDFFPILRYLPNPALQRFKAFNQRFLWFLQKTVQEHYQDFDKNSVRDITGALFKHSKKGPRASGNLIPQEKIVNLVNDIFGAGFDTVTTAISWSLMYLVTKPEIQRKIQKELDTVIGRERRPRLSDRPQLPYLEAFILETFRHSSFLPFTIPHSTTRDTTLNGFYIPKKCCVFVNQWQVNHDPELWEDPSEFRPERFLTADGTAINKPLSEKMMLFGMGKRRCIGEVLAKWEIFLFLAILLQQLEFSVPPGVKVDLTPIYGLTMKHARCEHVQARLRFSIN
As to the kind of experiment: Inhibition of recombinant human CYP1A2 expressed in baculosomes preincubated for 10 mins followed by cofactor addition measured every minute for 10 mins using ethoxyresorufin as substrate by CYPEX assay.

The nature of data set [12]: Permeability across apical to basolateral side in human Caco2 cells. Particulars: Caco-2, permeability. For orientation: Caco-2 monolayers are a common model of the intestinal barrier.
Data set [13] deals with T1, Cytochrome P450 3A4. As to the kind of experiment: Inhibition of recombinant human CYP3A4 expressed in baculosomes preincubated for 10 mins followed by cofactor addition measured every minute for 10 mins using 7-benzyloxyquinoline as substrate by CYPEX assay.
The next data set is filed under the species Homo sapiens. As to the kind of experiment: Selectivity ratio of IC50 for human ERG to Ki for human dopamine D3 receptor.
The target of a further data set is D(3) dopamine receptor (Homo sapiens, UniProt P35462). As to the kind of experiment: Displacement of [3H]-spiperone from human dopamine D3 receptor expressed in CHO-K1 cell membranes after 90 mins by liquid scintillation counter method.
Data set [14] concerns the target T3, D(4) dopamine receptor (Homo sapiens) (UniProt P21917).
T3 sequence (whole entry): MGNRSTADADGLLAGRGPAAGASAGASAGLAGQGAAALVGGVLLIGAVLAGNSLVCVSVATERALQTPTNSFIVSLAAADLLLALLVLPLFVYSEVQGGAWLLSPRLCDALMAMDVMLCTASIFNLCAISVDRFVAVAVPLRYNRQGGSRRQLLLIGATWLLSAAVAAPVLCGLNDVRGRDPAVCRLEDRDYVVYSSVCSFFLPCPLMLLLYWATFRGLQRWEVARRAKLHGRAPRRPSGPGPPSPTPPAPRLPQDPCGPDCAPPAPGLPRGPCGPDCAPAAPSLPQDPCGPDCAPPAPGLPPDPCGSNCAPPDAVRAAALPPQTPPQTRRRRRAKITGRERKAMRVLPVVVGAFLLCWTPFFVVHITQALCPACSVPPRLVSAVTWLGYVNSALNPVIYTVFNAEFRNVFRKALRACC
As to the kind of experiment: Binding affinity to dopamine D4 receptor (unknown origin).

The source made the active and inactive calls. No cut-off for these calls is given here.

Sequence of D(2) dopamine receptor (P14416 whole entry): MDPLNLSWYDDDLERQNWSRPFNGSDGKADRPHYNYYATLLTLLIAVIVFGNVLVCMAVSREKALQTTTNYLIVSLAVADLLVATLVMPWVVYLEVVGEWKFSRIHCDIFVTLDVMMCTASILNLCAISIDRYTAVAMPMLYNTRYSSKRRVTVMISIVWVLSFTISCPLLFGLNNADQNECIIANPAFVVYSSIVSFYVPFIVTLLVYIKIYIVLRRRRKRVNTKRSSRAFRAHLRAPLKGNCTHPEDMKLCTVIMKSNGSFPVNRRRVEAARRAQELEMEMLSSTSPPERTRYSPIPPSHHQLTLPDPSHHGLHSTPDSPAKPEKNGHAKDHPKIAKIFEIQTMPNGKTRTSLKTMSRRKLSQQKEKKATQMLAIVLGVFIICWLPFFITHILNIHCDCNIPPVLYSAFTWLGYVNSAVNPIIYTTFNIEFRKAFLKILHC
Sequence of D(1A) dopamine receptor (Homo sapiens) (P21728 whole entry): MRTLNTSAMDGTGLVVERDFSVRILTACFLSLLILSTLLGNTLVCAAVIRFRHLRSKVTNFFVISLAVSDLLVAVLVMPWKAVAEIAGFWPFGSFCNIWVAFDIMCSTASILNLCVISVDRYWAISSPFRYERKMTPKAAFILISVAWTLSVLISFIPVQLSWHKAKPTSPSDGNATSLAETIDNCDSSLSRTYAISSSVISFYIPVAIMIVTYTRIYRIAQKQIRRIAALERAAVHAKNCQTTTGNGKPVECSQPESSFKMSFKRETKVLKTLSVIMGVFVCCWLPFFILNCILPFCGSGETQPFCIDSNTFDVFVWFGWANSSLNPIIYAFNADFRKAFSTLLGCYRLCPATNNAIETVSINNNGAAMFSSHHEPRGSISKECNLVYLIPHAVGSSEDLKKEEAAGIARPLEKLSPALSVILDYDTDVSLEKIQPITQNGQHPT
Sequence of Cytochrome P450 2C19 (P33261 whole entry): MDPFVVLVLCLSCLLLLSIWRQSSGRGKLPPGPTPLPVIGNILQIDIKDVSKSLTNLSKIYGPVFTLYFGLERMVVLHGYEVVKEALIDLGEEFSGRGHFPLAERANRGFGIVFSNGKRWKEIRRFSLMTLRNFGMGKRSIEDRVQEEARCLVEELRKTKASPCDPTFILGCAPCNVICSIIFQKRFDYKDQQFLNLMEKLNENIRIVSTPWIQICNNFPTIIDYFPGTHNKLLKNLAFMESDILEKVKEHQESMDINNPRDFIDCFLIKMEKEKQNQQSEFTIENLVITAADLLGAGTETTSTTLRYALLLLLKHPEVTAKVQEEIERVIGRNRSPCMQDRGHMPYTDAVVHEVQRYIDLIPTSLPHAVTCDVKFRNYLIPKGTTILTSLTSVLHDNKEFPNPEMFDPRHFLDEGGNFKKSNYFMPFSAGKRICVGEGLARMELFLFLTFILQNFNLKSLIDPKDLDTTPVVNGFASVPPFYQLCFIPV
T1 sequence (P08684 whole entry): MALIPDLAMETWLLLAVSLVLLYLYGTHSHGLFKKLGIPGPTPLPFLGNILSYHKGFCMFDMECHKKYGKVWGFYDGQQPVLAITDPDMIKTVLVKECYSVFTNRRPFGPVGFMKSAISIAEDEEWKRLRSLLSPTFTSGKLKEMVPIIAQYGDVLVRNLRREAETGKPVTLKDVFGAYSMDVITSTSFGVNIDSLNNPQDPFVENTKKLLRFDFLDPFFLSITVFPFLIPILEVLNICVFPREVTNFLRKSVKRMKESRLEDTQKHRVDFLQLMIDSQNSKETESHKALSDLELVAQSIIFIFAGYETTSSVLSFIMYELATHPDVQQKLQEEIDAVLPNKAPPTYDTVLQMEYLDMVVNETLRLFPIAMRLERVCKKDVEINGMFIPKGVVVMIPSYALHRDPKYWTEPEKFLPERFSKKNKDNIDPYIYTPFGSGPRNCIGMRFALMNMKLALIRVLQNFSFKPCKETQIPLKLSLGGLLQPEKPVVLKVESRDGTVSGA
Sequence of Cytochrome P450 2C9 (P11712 whole entry): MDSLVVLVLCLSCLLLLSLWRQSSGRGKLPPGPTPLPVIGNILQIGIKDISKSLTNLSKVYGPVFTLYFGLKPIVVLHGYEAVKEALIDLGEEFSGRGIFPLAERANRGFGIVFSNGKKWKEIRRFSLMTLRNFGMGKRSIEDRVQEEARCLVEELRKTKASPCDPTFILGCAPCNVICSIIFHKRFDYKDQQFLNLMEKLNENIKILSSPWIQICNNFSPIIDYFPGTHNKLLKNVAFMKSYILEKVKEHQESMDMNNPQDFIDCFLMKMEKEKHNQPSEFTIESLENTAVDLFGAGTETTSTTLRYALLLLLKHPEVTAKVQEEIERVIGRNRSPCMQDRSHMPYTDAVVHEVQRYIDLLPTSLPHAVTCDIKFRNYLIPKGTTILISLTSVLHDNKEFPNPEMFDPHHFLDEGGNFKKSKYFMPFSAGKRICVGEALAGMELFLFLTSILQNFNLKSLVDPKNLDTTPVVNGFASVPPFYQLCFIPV
Sequence of Cytochrome P450 2D6 (P10635 whole entry): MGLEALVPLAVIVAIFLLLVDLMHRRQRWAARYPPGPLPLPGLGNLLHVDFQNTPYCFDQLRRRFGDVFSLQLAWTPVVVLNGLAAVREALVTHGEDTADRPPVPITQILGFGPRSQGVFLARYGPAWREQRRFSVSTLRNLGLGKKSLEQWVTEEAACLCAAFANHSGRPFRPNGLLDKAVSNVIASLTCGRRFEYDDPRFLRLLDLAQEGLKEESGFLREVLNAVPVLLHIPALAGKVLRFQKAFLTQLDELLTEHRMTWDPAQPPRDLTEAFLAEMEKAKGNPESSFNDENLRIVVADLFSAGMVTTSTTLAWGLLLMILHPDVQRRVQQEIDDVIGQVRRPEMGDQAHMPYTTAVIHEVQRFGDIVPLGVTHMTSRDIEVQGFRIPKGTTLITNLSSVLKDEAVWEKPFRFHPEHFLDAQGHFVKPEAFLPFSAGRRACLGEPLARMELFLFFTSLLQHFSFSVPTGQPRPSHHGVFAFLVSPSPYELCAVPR
Sequence of D(3) dopamine receptor (P35462 whole entry): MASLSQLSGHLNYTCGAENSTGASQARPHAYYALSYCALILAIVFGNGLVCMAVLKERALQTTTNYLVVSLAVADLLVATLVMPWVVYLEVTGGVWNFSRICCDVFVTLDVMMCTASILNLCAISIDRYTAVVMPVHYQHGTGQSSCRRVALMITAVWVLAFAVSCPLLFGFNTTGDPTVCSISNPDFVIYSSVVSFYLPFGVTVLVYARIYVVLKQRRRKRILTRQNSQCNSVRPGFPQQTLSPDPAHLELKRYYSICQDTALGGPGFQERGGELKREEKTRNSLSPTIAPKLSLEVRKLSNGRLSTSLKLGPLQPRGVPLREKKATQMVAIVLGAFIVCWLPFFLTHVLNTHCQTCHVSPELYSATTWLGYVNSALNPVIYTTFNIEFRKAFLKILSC

For `Cc1ncoc1-c1nnc(SCCCN2CC3CCN(c4ccc(C(F)(F)F)cc4F)C3C2)n1C` (stereo in doubt; 8b), the result in [1] was inactive.

As usually defined, the solubility is the dissolved amount per volume that the medium holds. `Cc1ncoc1-c1nnc(SCCCN2CC3CCN(c4ccc(C(F)(F)F)cc4)C3C2)n1C.Cl` (centres undefined) came in with a solubility in [2] of 0.3 mg/mL.

In general, microsomal CLint refers to a measure of how fast metabolising enzymes remove a compound, apart from limits set by blood flow. A high value points to rapid turnover. As a reminder, the clearance is the rate of elimination divided by the concentration. Read a high clearance as efficient removal. In general, half-life refers to the time in which the quantity being followed falls by half. One may read the IC50 as the point on the concentration scale where inhibition reaches its midpoint. In general, Ki refers to the dissociation constant of the complex between target and ligand, obtained from inhibition or displacement. In general, fraction unbound refers to the share of the substance not bound to proteins or other matrix. A higher fraction unbound goes with weak binding. A word on the Vd: it is a proportionality between amount in the body and measured concentration, not a real space. Read a high Vd as extensive tissue distribution. For orientation: Papp A→B means the apparent permeability from the apical to the basolateral side of a cell layer. The low end stands for slow passage, the high end for fast passage. Consider `Cc1ncoc1-c1nnc(SCCCN2CC3CCN(c4ccc(F)cc4)C3C2)n1C` (stereo in doubt; 9a), for which the microsomal CLint at 0.5 µM came to 136 µL/min/mg in “in vitro [3]” and 27 µL/min/mg in “in vitro [8]”. This molecule yielded a clearance in data set [4] of 3.18 L/h/kg. The molecule further had a half-life in [5] of 18 min. Further, the IC50 on Cytochrome P450 2C19, on Cytochrome P450 3A4 [6], on Cytochrome P450 2D6, at Cytochrome P450 2C9, on Cytochrome P450 1A2 and at Cytochrome P450 3A4 [13] was over 5 µM in each case. This molecule also showed a Ki at D(2) dopamine receptor of 0.126 µM. The results for the fraction unbound in data set [7] and in data set [10] were 0.14 and 0.095, respectively. In data set [9], this molecule gave a Fa of 22%. This molecule also had a Vd in [11] of 1.2 L/kg. The Papp A→B in [12] amounted to 175 nm/s.

Consider `Cn1c(SCCCN2CC3CCN(c4ccc(C(F)(F)F)cc4)C3C2)nnc1-c1cc[nH]c(=O)c1` (racemic), for which the Selectivity ratio in the data set listed under Homo sapiens is over 100.

In data set [2], `Cc1ncoc1-c1nnc(SCCCN2CC3CCN(c4ccccc4)C3C2)n1C.Cl` (centres undefined) gave a solubility of over 2 mg/mL.

Consider `Cn1c(SCCCN2CC3CCN(c4ccc(F)cc4F)C3C2)nnc1-c1cnccn1` (stereo in doubt; 36b), for which the microsomal CLint at 0.5 µM in “in vitro [3]” and in the data set “in vitro [8]” was over 650 µL/min/mg in each case. The IC50 at Cytochrome P450 2C19, at Cytochrome P450 3A4 [6], on Cytochrome P450 2D6, at Cytochrome P450 2C9, at Cytochrome P450 1A2 and at Cytochrome P450 3A4 [13] was over 1 µM each time. Further, the figures for the Ki on D(2) dopamine receptor and at D(3) dopamine receptor were 0.316 µM and 0.00398 µM, respectively.

For `Cn1c(SCCCN2CC3CCN(c4ccccc4C(F)(F)F)C3C2)nnc1-c1cccnc1` (stereo in doubt; 52a), the outcome in data set [1] and in [14] was inactive.

In the case of `Cc1ncoc1-c1nnc(SCCCN2CC3CCN(c4ccccc4)C3C2)n1C` (stereo in doubt; 6b), the outcome in data set [1] was inactive.

As for `Cn1c(SCCCN2CC3CCN(c4ccc(C(F)(F)F)cc4)C3C2)nnc1-c1cnccn1` (stereo in doubt; 17b), the microsomal CLint at 0.5 µM in the data set “in vitro [3]” and in the data set “in vitro [8]” was over 700 µL/min/mg in each case. The IC50 on Cytochrome P450 2C19, at Cytochrome P450 3A4 [6], on Cytochrome P450 2D6, on Cytochrome P450 2C9, on Cytochrome P450 1A2 and on Cytochrome P450 3A4 [13] was over 2 µM in each case. For the same molecule, the Ki at D(2) dopamine receptor was 0.158 µM.

With `CC(C)Oc1ccccc1N1CCC2CN(CCCSc3nnc(-c4cnccn4)n3C)CC21` (stereo in doubt; 35b), the microsomal CLint at 0.5 µM in “in vitro [3]” and in “in vitro [8]” was over 750 µL/min/mg throughout. Besides, the IC50 at Cytochrome P450 2C19, at Cytochrome P450 3A4 [6], at Cytochrome P450 2D6, at Cytochrome P450 2C9, on Cytochrome P450 1A2 and on Cytochrome P450 3A4 [13] was over 1 µM throughout. The results for the inhibition constant (Ki) on D(2) dopamine receptor and at D(3) dopamine receptor were 0.251 µM and 0.00794 µM, respectively. In addition, the unbound share (fraction unbound) in [7] was 0.024; in data set [10], 0.13.

The values above are taken from ChEMBL document CHEMBL3774368, “1,2,4-Triazolyl octahydropyrrolo[2,3-b]pyrroles: A new series of potent and selective dopamine D3 receptor antagonists” (Bioorg Med Chem, 2016).
